# Measurements published in patent publication US9265771B2, “Method for treating Lyme disease” (Zoetis Services LLC, priority 2012, dated 2016).
# “And” between values parts separate entries of the source, which are not always exact repeats. Identical values can stand only once.
# Assays:
# [1] = test system: B. burgdorferi sensu stricto (B31 strain); assay: In-vitro assessment of cefovecin efficacy (live spirochetes in culture by light microscopy); assay type: cell-based, Borrelia burgdorferi; conditions: for Number of B. burgdorferi spirochetes per field-of-view (geometric mean per ten field of views): cultures A, C
# Procedure: B. burgdorferi sensu stricto (B31 strain) was cultured. The experimental (triplicate) groups included a control, 0.02 μg/mL cefovecin, and 2 μg/mL cefovecin. Cultures were viewed by light microscopy at 0, 6, 24, 30, 48, and 54 hours post inoculation to assess number of live spirochetes (Table 1).
# B. burgdorferi = assay: Study B: QC6 ELISA in tick-infected dogs; assay type: in vivo, beagle dogs; conditions: 8 dogs/group
# Source text: Three outer surface proteins (Osp) on B. burgdorferi are important for diagnosis and prevention, and are expressed by the organism in response to its local environment. […] OspF is another surface protein that is generally observed in late-stage disease. The C in […] refers to a 25-amino acid, C6 peptide in the sixth invariable region of an outer membrane lipoprotein (VIsE). Antibody against C6 is highly accurate as a serologic diagnosis of Lyme disease independent of a subject's (e.g., canine) vaccination status. Further, the generation of C6 antibodies implies an active infection with viable spirochetes. Serological methods for detecting B. burgdorfer/Lyme disease were conducted using the IDEXX qualitative SNAP-4Dx ELISA and the Quantitative C6 (Quant C6 or QC6) diagnostic kits, which are enzyme linked immunosorbent assays against the previously described 25-amino-acid C6 peptide. QC6 ELISA data, units/mL, are useful for guidance in initiating and evaluating response to therapy (See Levy S A, O'Connor T P, Hanscom J L, Shields P, et al. Quantitative measurement of a C6 antibody following antibiotic treatment of Borrelia burgdorferi antibody-positive, nonclinical dogs. Clin Vacc Immunol 2008; 15(1):115-119 and Littman M P, Goldstein R E, Labato M A, et al. ACVIM Small Animal Concensus Statement on Lyme Disease in Dogs: Diagnosis, Treatment and Prevention. J Vet Intern Med 2006; 20: 422-434).
# (§1) Thirty-two (18 male and 14 female) beagle dogs were sero-negative for Borrelia burgdorferi, not vaccinated with any Borrelia spp vaccines, and acclimated at the study facility for seven days. The study was conducted under National Research Council guidelines (1996). […] Field-caught Ixodes from the northeast USA were placed on the dogs without containment chambers for 10 days; after ticks fed to repletion, dogs were treated with two applications of an approved topical acaricide with a 30-day interval between applications.
# (§2) Forty days post-challenge, and prior to antibiotic treatments, blood was collected from each dog as were two skin biopsy punch samples near tick attachment sites. Blood was collected approximately monthly post-treatment. Skin biopsies were taken near the tick attachment site on Days 48/49, 118, 146, 180, and 315. Serum antibodies to Borrelia were assayed using the IDEXX SNAP-4Dx and QC6 ELISA. In cooperation with Cornell University, serum samples were analyzed using fluorescent-bead-based multiplex assays detecting antibodies against B. burgdorferi outer surface proteins OspA, OspC, and OspF. Data were expressed as median fluorescent intensities (MFI), and shown to be specific and sensitive to provide interpretative guidelines regarding infection. The skin biopsies were collected for a polymerase chain reaction (PCR; FlaB) assay and cultured for spirochete detection. At the end of the study, blood and skin biopsies were collected and synovial tissue from the joints were harvested at necropsy.
# On Day 75 and Day 89 Convenia was administered to the eight dogs in T04 (8 mg/kg bodyweight; subcutaneous injection). The other treated groups received their respective regimens daily and orally for 30 days from Days 75 to 104. […] Dogs in T01 served as infected, untreated, controls. Inter-treatment comparisons to evaluate antibiotic efficacy included clinical signs, serology, culture results and pathology.
# [2] = test system: B. burgdorferi outer surface protein OspF; assay: Study B: fluorescent-bead-based multiplex assay, antibodies against OspF; assay type: in vivo, beagle dogs; conditions: for Multiplex Assay OspF: No. Dogs > Positive Threshold (# dogs > 1500): 8 dogs/group
# Procedure: as §1
# as §2, with “Data were expressed as median fluorescent intensities (MFI), and shown to be specific and sensitive to provide interpretative guidelines regarding infection.” left out
# On Day 75 and Day 89 Convenia was administered to the eight dogs in T04 (8 mg/kg bodyweight; subcutaneous injection). The other treated groups received their respective regimens daily and orally for 30 days from Days 75 to 104. […] Dogs in T01 served as infected, untreated, controls.
# [3] = dog, in vivo, sc, 8 mg/kg
# Procedure: On Days 83 and 97, Convenia was administered (8 mg/kg bodyweight; subcutaneous injection). Treated dogs, 8 B. burgdorferi-positive and 4 controls, were compared to untreated cohorts (8 B. burgdorferi-positive, and 3 controls).
smiles,measurement,setting,value
"CO/N=C(\C(=O)N[C@@H]1C(=O)N2C(C(=O)[O-])=C([C@@H]3CCCO3)CS[C@H]12)c1csc(N)n1.[Na+] [Convenia, (6R,7R)-7-[[(2Z)-(2-amino-4-thiazolyl)(methoxyimino)acetyl]-amino]-8-oxo-3-[(2S)-tetrahydro-2-furanyl]-5-thia-1-azabicyclo[4.2.0]oct-2-ene-2-carboxylic acid, monosodium salt]",Number of B. burgdorferi spirochetes per field-of-view (geometric mean per ten field of views),"[1]; 0.02 μg/mL, 0 hours",0
same,Number of B. burgdorferi spirochetes per field-of-view (geometric mean per ten field of views),"[1]; 0.02 μg/mL, 24 hours, listed as cefovecin, monosodium salt",1.7 and 2.1 and 2.0
same,Number of B. burgdorferi spirochetes per field-of-view (geometric mean per ten field of views),"[1]; 0.02 μg/mL, 48 hours, listed as cefovecin, monosodium salt",7.2 and 4.1 and 5.9
same,Number of B. burgdorferi spirochetes per field-of-view (geometric mean per ten field of views),"[1]; 0.02 μg/mL, 54 hours, listed as cefovecin, monosodium salt",8.1 and 10.2 and 9.0
same,Retardation of growth of B. burgdorferi,"[1]; 0.02 μg/mL, in 54 hours",at least 30%
same,Time after which B. burgdorferi is eliminated in culture,[1]; 2 μg/mL,about 24 hours
same,Number of B. burgdorferi spirochetes per field-of-view (geometric mean per ten field of views),"[1]; 2 μg/mL, 0 hours",0
same,Number of B. burgdorferi spirochetes per field-of-view (geometric mean per ten field of views),"[1]; 2 μg/mL, 30 hours",0
same,Number of B. burgdorferi spirochetes per field-of-view (geometric mean per ten field of views),"[1]; 2 μg/mL, 48 hours",0
same,Number of B. burgdorferi spirochetes per field-of-view (geometric mean per ten field of views),"[1]; 2 μg/mL, 54 hours",0
same,"Dogs Sero-converted to B. burgdorferi per QC6 ELISA (≧30 U/mL), (%)",B. burgdorferi; Day 48 (pre-treatment),75.0%
same,"Number of Dogs Sero-converted to B. burgdorferi per QC6 ELISA (≧30 U/mL), No.",B. burgdorferi; Day 48 (pre-treatment),6
same,"Dogs Sero-converted to B. burgdorferi per QC6 ELISA (≧30 U/mL), (%)",B. burgdorferi; Day 111,75.0%
same,"Number of Dogs Sero-converted to B. burgdorferi per QC6 ELISA (≧30 U/mL), No.",B. burgdorferi; Day 111,6
same,"Dogs Sero-converted to B. burgdorferi per QC6 ELISA (≧30 U/mL), (%)",B. burgdorferi; Day 145,0.0%
same,"Number of Dogs Sero-converted to B. burgdorferi per QC6 ELISA (≧30 U/mL), No.",B. burgdorferi; Day 145,0
same,"Dogs Sero-converted to B. burgdorferi per QC6 ELISA (≧30 U/mL), (%)",B. burgdorferi; Day 179,0.0%
same,"Number of Dogs Sero-converted to B. burgdorferi per QC6 ELISA (≧30 U/mL), No.",B. burgdorferi; Day 179,0
same,"Dogs Sero-converted to B. burgdorferi per QC6 ELISA (≧30 U/mL), (%)",B. burgdorferi; Day 221,0.0%
same,"Number of Dogs Sero-converted to B. burgdorferi per QC6 ELISA (≧30 U/mL), No.",B. burgdorferi; Day 221,0
same,"Dogs Sero-converted to B. burgdorferi per QC6 ELISA (≧30 U/mL), (%)",B. burgdorferi; Day 251,0.0%
same,"Number of Dogs Sero-converted to B. burgdorferi per QC6 ELISA (≧30 U/mL), No.",B. burgdorferi; Day 251,0
same,"Dogs Sero-converted to B. burgdorferi per QC6 ELISA (≧30 U/mL), (%)",B. burgdorferi; Day 281,0.0%
same,"Number of Dogs Sero-converted to B. burgdorferi per QC6 ELISA (≧30 U/mL), No.",B. burgdorferi; Day 281,0
same,"Dogs Sero-converted to B. burgdorferi per QC6 ELISA (≧30 U/mL), (%)",B. burgdorferi; Day 314,0.0%
same,"Number of Dogs Sero-converted to B. burgdorferi per QC6 ELISA (≧30 U/mL), No.",B. burgdorferi; Day 314,0
same,Multiplex Assay OspF: MFI Mean,[2]; Day 48 (pre-treatment),922.75 MFI
same,Multiplex Assay OspF: No. Dogs > Positive Threshold (# dogs > 1500),[2]; Day 48 (pre-treatment),2
same,Multiplex Assay OspF: No. Dogs > Positive Threshold (# dogs > 1500),"[2]; Day 48 (pre-treatment), monosodium salt",two
same,Multiplex Assay OspF: MFI Mean,[2]; Day 111,704.13 MFI
same,Multiplex Assay OspF: No. Dogs > Positive Threshold (# dogs > 1500),[2]; Day 111,0
same,Multiplex Assay OspF: MFI Mean,[2]; Day 145,306.75 MFI
same,Multiplex Assay OspF: No. Dogs > Positive Threshold (# dogs > 1500),[2]; Day 145,0
same,Multiplex Assay OspF: MFI Mean,[2]; Day 179,270.00 MFI
same,Multiplex Assay OspF: No. Dogs > Positive Threshold (# dogs > 1500),[2]; Day 179,0
same,Multiplex Assay OspF: MFI Mean,[2]; Day 221,227.13 MFI
same,Multiplex Assay OspF: No. Dogs > Positive Threshold (# dogs > 1500),[2]; Day 221,0
same,Multiplex Assay OspF: MFI Mean,[2]; Day 251,221.88 MFI
same,Multiplex Assay OspF: No. Dogs > Positive Threshold (# dogs > 1500),[2]; Day 251,0
same,Multiplex Assay OspF: MFI Mean,[2]; Day 281,225.63 MFI
same,Multiplex Assay OspF: No. Dogs > Positive Threshold (# dogs > 1500),[2]; Day 281,0
same,Multiplex Assay OspF: MFI Mean,[2]; Day 314,239.88 MFI
same,Multiplex Assay OspF: No. Dogs > Positive Threshold (# dogs > 1500),[2]; Day 314,0
same,Multiplex Assay OspF: MFI Mean,[2]; Day −15 (pre-infection),101.50 MFI
same,Multiplex Assay OspF: No. Dogs > Positive Threshold (# dogs > 1500),[2]; Day −15 (pre-infection),0
same,Antibody-OspF status of dogs,[2]; after Day 48,all dogs negative thereafter
same,Adverse or unexpected events,[3],No adverse or unexpected events
